Test results taken from PMC7961786, “Magic Peptide: Unique Properties of the LRR11 Peptide in the Activation of Leukotriene Synthesis in Human Neutrophils” (International Journal of Molecular Sciences, 2021).
Oligonucleotides are written 5' to 3', each unit as a sugar letter and its base; * is a phosphorothioate linkage, no mark a phosphodiester; rarer units and linkages stand in square brackets, end groups in braces. Plain capitals give the bases only. d = 2'-deoxy (DNA)

Legend:
[1] = system: 5′-biotinylated C-CpG; test: TSM acoustic biosensor, peptide binding to immobilized C-CpG; conditions: up to 100 nM URP, immobilized C-CpG; Figure 4A
Text: (§1) To characterize the interaction of the studied synthetic ODNs with the LRR11 peptide, we applied the thickness shear mode (TSM) acoustic biosensor method, which is based on the investigation of ultrasonic waves in piezoelectric materials such as AT-cut quartz. This approach involved immobilizing a 5′-biotinylated ODN on the surface of TSM transducer covered by NeutrAvidin and then adding the LRR11 peptide. An unrelated peptide (URP) with a random primary structure ([…]) was used as a negative control. The measurement procedure was divided into several steps, in which each immobilization stage was followed by washing with an appropriate buffer solution; when peptide solutions at different concentrations (from 1 to 100 nM) were added to the surface-modified TSM transducer, a wash with Hanks buffer was used before increasing the peptide concentration.
(§2) Based on Langmuir isotherm Equation (1), (1) Δfcc=Δfsmaxc/KD+c where Δfs(c) is the frequency change at a certain peptide concentration under equilibrium conditions, (Δfs)max is the maximum frequency change, c is the peptide concentration, and KD is the equilibrium constant of dissociation, we estimated the (Δfs)max and KD values for binding of the LRR11 peptide to C-CpG and B-CpG (Table 3).
Using Sauerbrey’s Equation (2), (2) Δf=−2f02Δm/Aμqρq where f0 is the fundamental resonance frequency (in our case 8 MHz), Δm is the change in mass (in grams) of the adsorbed layer on the crystal surface, A is the effective crystal area (in our case 0.2 cm^2), μq = 2.947 × 10^11 g × cm^−1s^−2 is the shear modulus of elasticity, and ρq = 2.648 g × cm^−3 is the crystal density, surface concentrations of NeutrAvidin, ODN and LRR11 peptide were estimated based on changes of resonance frequency (Figure 4). According to Equation (2), the surface density of molecules, σ (in molecules/cm^2), can be calculated as σ = ΔmNA/(A × Mw), where NA is Avogadro’s number (=6.023 × 10^23 mol^−1), and Mw represents the molecular weight of the corresponding compound (NeutrAvidin: 65 kDa, 5′-biotinylated C-CpG: 7115.4 Da, and LRR11: 3421 Da). Based on this approach, we obtained the following surface concentration values: 1.94 × 10^13 cm^−2 for NeutrAvidin, 3.37 × 10^13 cm^−2 for C-CpG and 2.4 × 10^13 cm^−2 for LRR11. The NeutrAvidin has four binding sites, two of which are available for biotinylated ODN binding. This is due to the fact that the other two sites are inaccessible due to NeutrAvidin chemisorption on the TSM surface. Thus, the number of available binding sites for the ODN is 3.88 × 10^13 cm^−2. […] Therefore, the surface of the TSM transducer is practically completely saturated by C-CpG. Estimation of the surface concentration of LRR11 evidences that at 50 nM concentration of this peptide, it occupies almost 70.6% of the ODN molecules. […]

[2] = system: NeutrAvidin; test: TSM acoustic biosensor, unspecific binding to NeutrAvidin in the absence of ODNs
Text: as §1
(§3) Eight MHz AT-cut piezoelectric quartz crystal transducer was obtained from CH Instruments, Austin, TX, USA. The transducer was covered on both sides with thin layers of gold that served as electrodes (working area 0.2 cm^2). Prior ODNs immobilization, the crystal was carefully cleaned with basic Piranha solution (29% NH3, 30% H2O and H2O2 with volumetric 1:5:1 ratio, respectively) for 25 min. After the thorough cleaning, the crystal was positioned between two silicon O-rings in a flow-through cell. […]

[3] = system: 5′-biotinylated B-CpG; test: TSM acoustic biosensor, peptide binding to immobilized B-CpG; conditions: URP, immobilized B-CpG
Text: as §1, §2
Eight MHz AT-cut piezoelectric quartz crystal transducer was obtained from CH Instruments, Austin, TX, USA. The transducer was covered on both sides with thin layers of gold that served as electrodes (working area 0.2 cm^2). Prior ODNs immobilization, the crystal was carefully cleaned with basic Piranha solution (29% NH3, 30% H2O and H2O2 with volumetric 1:5:1 ratio, respectively) for 25 min. After the thorough cleaning, the crystal was positioned between two silicon O-rings in a flow-through cell. The analyte was injected into the cell using a Genie Plus syringe pump (Kent Scientific, Torrington, CT, USA) at a flow rate of 50 μL/min. Each solution was applied until the resonance frequency stabilized. The surface of the transducer was first washed with deionized water, and then 125 μg/mL NeutrAvidin (WWR International GmbH, Vienna, Austria) solution in water was applied. Approximately 15 min were required to stabilize the signal at a constant NeutrAvidin flow rate. This was followed by washing with water to rinse out all non-chemisorbed NeutrAvidin molecules. Immobilization of ODN on the gold surface of the crystals is accomplished using avidin–biotin interactions. A 1 μM 5′-biotinylated ODN solution was injected over the neutravidin-modified surface and subsequently the crystal was washed again with water. The system was then equilibrated using Hanks buffer solution. This buffer was suitable for studying LRR11–ODN binding. Then LRR11 was used at concentrations of 1, 5, 10, 50 and 100 nM […] in Hanks buffer. After each addition of LRR11, the sensor surface was washed with Hanks buffer and LRR11 with the higher concentration was added. All binding experiments were carried out at room temperature. Buffer and sample solutions were introduced in a flow-through format. A network analyzer 8712ES (Agilent Technologies, Santa Clara, CA, USA) was used to measure the impedance properties of the sensor and determine fS and Rm.

[4] = system: 5′-biotinylated G-rich ODN; test: TSM acoustic biosensor, peptide binding to immobilized G-rich ODN; conditions: URP, immobilized G-rich ODN
Text: as §1, §3

[5] = system: PMNLs, 5-LOX product formation; test: 5-LOX product formation in PMNLs stimulated by calcium ionophore A23187; assay type: cell-based, human; conditions: 1 µM A23187 alone for 10 min, after 30 min at 37 °C without inhibitor; mean ± SEM, three independent experiments
Method: (§4) Human neutrophils were isolated from freshly taken citrate-anticoagulated peripheral blood from healthy individuals using standard methods. Leukocyte-rich plasma was prepared by sedimentation of erythrocytes with 3% dextran T-500 at room temperature. For purification of granulocytes, centrifugation through Ficoll-Paque (density 1.077 g/mL) was used, followed by hypotonic lysis of the remaining erythrocytes. PMNLs were washed twice in PBS, resuspended at 10^7 cells/mL (96–97% purity, 98–99% viability) in Dulbecco’s PBS containing 1 mg/mL glucose (no CaCl2) and stored at room temperature. All methods were performed in accordance with the relevant instructions and regulations of the Ministry of Health of the Russian Federation and local legislation.
(§5) To purify the water/methanol extracts, solid-phase extraction was used on Sep-Pak C18 cartridges (500 mg; Macherey-Nagel, Dueren, Germany), which were conditioned first with methanol, and then with water. Major 5-LOX metabolites were identified by comparing retention times with those of known compounds, as previously described.

[6] = system: human neutrophils (PMNLs), 5-LOX product synthesis; test: 5-LOX metabolite synthesis in human neutrophils stimulated with opsonized S. typhimurium (HPLC); assay type: cell-based
Method: Figure 1 Effects of LRR11 and ODNs on the formation of LTB4 (A,B) and the sum of 5-LOX metabolites (ω-OH-LTB4, LTB4 and its isomers, and 5-HETE) (C) in human PMNLs. PMNLs (2 × 10^7) were incubated for 15 min at 37 °C without (black bars) or with 1 μM LRR11 (A, LRR11_first); then ODNs and LRR11 or LPS were added; various ways of adding ODN and LRR11 peptide are indicated. In control samples, Hanks’ solution was added instead of ODNs. After 20 min, 0.5 × 10^9 S. typhimurium bacterial cells were added for a further 15 min. The 5-LOX products were determined using HPLC. Values indicate mean ± SEM of five independent experiments performed in duplicate. * p < 0.05, ** p < 0.01, *** p < 0.005, compared with the control. # p < 0.05, ## p < 0.01 for pairs of data compared as indicated by two-way ANOVA followed by Tukey’s multiple comparison test.
Figure 3 Synthesis of the 5-LOX metabolites in PMNLs exposed to opsonized S. typhimurium bacteria in the presence of the RAGE antagonist FPS-ZM1. PMNLs (2 × 10^7) were incubated for 15 min at 37 °C without additives or with 0.15 µM FPS-ZM1, for the next 20 min the mixture was incubated with 1 µM ODNs without (black bars) or with 1 µM LRR11 (gray bars) before adding 5 × 10^8 S. typhimurium for 15 min. In control samples, Hanks’ solution was added instead of ODNs. The 5-LOX products were determined using HPLC. Graphical data are presented for LTB4 (A) or the sum of LTB4 and its isomers, ω-OH-LTB4 and 5-HETE, designed as Σ5LOX products (B).
as §4, with “PMNLs were washed twice in PBS, resuspended at 10^7 cells/mL (96–97% purity, 98–99% viability) in Dulbecco’s PBS containing 1 mg/mL glucose (no CaCl2) and stored at room temperature.” left out
Bacteria (S. typhimurium IE 147 strain) obtained from the Collection of Gamaleya National Research Center of Epidemiology and Microbiology (Moscow, Russia) were grown in Luria–Bertani broth to a concentration of 1 × 10^9 colony-forming units (CFU)/mL. The bacteria were collected by centrifugation at 2000 g and opsonized immediately before the experiment for 30 min in 20% (v/v) fresh serum from the same donor whose blood was used to isolate neutrophils. Repeated centrifugation in Dulbecco’s solution was used to wash the bacteria.
The cell suspension (2 × 10^7 PMNLs in HBSS/HEPES, reaction volume of 6 mL) was cultured for 15 min in an incubator at 37 °C, 5% CO2. Then 1.0 µM ODN with or without 1.0 µM LRR11, or 2 µg/mL LPS, was added as indicated. After 20 min, the cells were stimulated with S. typhimurium (the ratio of bacteria to PMNLs was approximately 20:1) for the next 15 min [3]. The synthesis of 5-LOX metabolites was stopped by adding an equal volume of methanol at −20 °C with prostaglandin B2 as an internal standard. Samples were stored at −20 °C. The denatured cell suspension was centrifuged, and supernatants designated as water/methanol extracts.
as §5
Table S1. Effect of Chloroquine on 5-LOX product formation in PMNLs after ODN priming followed by the addition
of opsonized S. typhimurium bacteria.

For “LQTLDLRDNALTTIHFIPSIPD [URP, unrelated peptide with a random primary structure, negative control, reference compound]”, the “frequency reduction by URP” value [1] was “no frequency reduction was occurred even after the addition of 100 nM URP”, the “unspecific binding to NeutrAvidin” value [2] was “no unspecific biding” and the “interaction of URP with ODN” value [3] was “absence of interactions between the URP and ODNs”. The “interaction of URP with ODN” value [4] was “absence of interactions between the URP and ODNs”.
`CNc1ccc2oc(C[C@H]3O[C@@]4(CC[C@H]3C)O[C@H]([C@H](C)C(=O)c3ccc[nH]3)[C@H](C)C[C@H]4C)nc2c1C(=O)O` [A23187] was tested, and the “Σ 5-LOX metabolites” value [5] was 416 ± 37 ng/10^7 PMNLs.
In the case of “5′- ggGGACGACGTCGTGgggggg-3′ (DNA dG*dG*dGdGdAdCdGdAdCdGdTdCdGdTdGdG*dG*dG*dG*dG*dG) [A-CpG]”, the “effect on 5-LOX activity / leukotriene synthesis” value ([6]; ODN alone, 1 µM, 20 min, then opsonized S. typhimurium 15 min, Figure 1, five independent experiments in duplicate) is reported as “did not significantly affect 5-LOX activity” and the “Σ 5-LOX metabolites” value ([6]; Table S1, 2×10^7 PMNLs, 15 min at 37 °C without or with 5 µM Chloroquine, then ODN, after 20 min 0.5×10^9 opsonized S. typhimurium for 15 min, mean ± SEM, three independent experiments) is reported as 18.4 ± 2.1 ng/107 PMNLs.
